Data: patent US11918693B2, “Ibuprofen and acetaminophen tablet” (GlaxoSmithKline Consumer Healthcare Holdings (US) LLC, priority 2019, dated 2024)

Tested on: pyrexia induced by intravenous reference standard endotoxin (RSE) in healthy males
Assay type: in vivo, human
Conditions: for WSTD0-2 h, Treatment difference vs. Placebo / WSTD0-4 h, Treatment difference vs. Placebo / WSTD0-6 h, Treatment difference vs. Placebo / WSTD0-8 h, Treatment difference vs. Placebo / WSTD6-8 h, Treatment difference vs. Placebo / WSTD50-110 min, Treatment difference vs. Placebo / WSTD80-110 min, Treatment difference vs. Placebo / Period post dose in which subjects' temperatures were significantly reduced relative to placebo / Headache due to RSE, subjects / Nausea due to RSE, subjects / Pyrexia, AE considered related to RSE, subjects: APAP 500 mg; for WSTD50-110 min, LSM / WSTD50-110 min, Mean / WSTD80-110 min, LSM / WSTD80-110 min, Mean: post hoc analysis; for WSTD50-110 min, LSM / WSTD50-110 min, Mean / WSTD80-110 min, LSM / WSTD80-110 min, Mean / WSTD0-2 h, Mean (SD) / WSTD0-4 h, Mean (SD) / WSTD0-6 h, Mean (SD) / WSTD6-8 h, Mean (SD) / WSTD0-8 h, Mean (SD): IBU dose 250 mg, APAP dose 500 mg; for Period post dose in which subjects' temperatures were significantly reduced relative to placebo / WSTD0-2 h, Mean (SD) / WSTD0-4 h, Mean (SD) / WSTD0-6 h, Mean (SD) / WSTD6-8 h, Mean (SD) / WSTD0-8 h, Mean (SD): single oral dose; for WSTD0-8 h, Mean (SD): primary efficacy endpoint; for Headache due to RSE, subjects / Nausea due to RSE, subjects / Pyrexia, AE considered related to RSE, subjects: study drug treatment period
Experimental: This study evaluated the antipyretic efficacy, onset of effect and tolerability of a single dose of FDC IBU/APAP 250 mg/500 mg compared with placebo and each monocomponent at the same dose.
This was a single-center, randomized, double-blind, placebo-controlled, full-factorial study in healthy males aged 18-55 years in whom pyrexia was induced by intravenous administration of a reference standard endotoxin (RSE). After RSE administration and attainment of an oral temperature ≥100.5° F. (38.1° C.), subjects were randomized 3:3:3:1 to receive a single oral dose of FDC IBU/APAP 250 mg/500 mg, APAP 500 mg, IBU 250 mg, or placebo in double-blind fashion. Oral temperature was subsequently measured every 10 minutes for the first 2 hours and then every 30 minutes until 8 hours post dose. Time-weighted sum of temperature differences from baseline to 8 hours (WSTD0-8) after study medication administration was the primary efficacy endpoint. Secondary endpoints included WSTD scores from 0-2, 0-4, 0-6, and 6-8 hours; time to return to “normal” temperature; time to rescue medication use; global drug evaluation. Safety was monitored and assessed via adverse events (AEs).
This was a single-center, randomized, double-blind, placebo-controlled, full-factorial single-dose study in subjects in whom pyrexia was induced by intravenous (IV) administration of a reference standard endotoxin (RSE). In this standardized model, fever was induced by endotoxin (gram-negative bacterial lipopolysaccharide) derived from Escherichia coli O113, which was developed as a national biological reference standard in 1976 by the National Institute of Allergy and Infectious Diseases and the US Food and Drug Administration. The RSE used in this study was supplied by List Biological Laboratories, Inc. (Campbell, CA, USA).
Subject eligibility was determined at a screening visit within 28 days prior to study drug treatment; eligible subjects were assigned sequential subject numbers by the investigator. Subjects were healthy males aged 18-55 years, inclusive, with a normal, stable body temperature at screening and day 0, body mass index of 17.5-37.0 kg/m^2, and total body weight ≥50 kg at screening, demonstrably adequate veins for IV catheter insertion, and who were willing and able to comply with all study procedures. […] Female subjects were not enrolled due to potential teratogenicity concerns associated with the use of the RSE.
Subjects entered the study center on day 0 to confirm eligibility, i.e., afebrile state, defined as a mean oral temperature 97.4° F. to 98.8° F. not varying by more than 0.4° F. on 3 repeated measures over 30 minutes and still meeting inclusion/exclusion criteria. Subjects who remained eligible for the study remained in-house until after completion of all study procedures.
Subjects received prophylactic ondansetron, 8 mg intravenously, approximately 30 minutes prior to administration of the RSE to reduce the likelihood of nausea and vomiting. Prior to RSE administration, changes to prior treatments were recorded; blood pressure and HR were measured; and a 12-lead ECG was obtained. Oral temperatures were recorded, with “normal” for each subject being the temperature recorded immediately prior to RSE administration.
Subject eligibility Subject assessments included physical examination, vital sign measurement, ECG evaluation, and laboratory studies (hematology, serum chemistry, urinalysis). The baseline oral temperature was defined as the temperature reading obtained immediately prior to administration of study medication, after the subject had reached an RSE-induced oral temperature ≥100.5° F. (38.1° C.) that was required for randomization. After randomization and study medication administration, oral temperature was measured using a standardized electronic digital thermometer every 10 minutes for the first 2 hours, and then every 30 minutes until 8 hours post dose. Subjects were assessed for emergence of AEs at each temperature evaluation time point. […]

[1] = first minus second treatment, IBU 250 mg

| SMILES | WSTD0-2 h, Treatment difference vs. Placebo [1] | WSTD0-4 h, Treatment difference vs. Placebo [1] | WSTD0-6 h, Treatment difference vs. Placebo [1] | WSTD0-8 h, Treatment difference vs. Placebo [1] | WSTD6-8 h, Treatment difference vs. Placebo [1] | WSTD50-110 min, LSM | WSTD50-110 min, Mean | WSTD80-110 min, LSM | WSTD80-110 min, Mean | WSTD50-110 min, Treatment difference vs. Placebo (post hoc, IBU 250 mg) | WSTD80-110 min, Treatment difference vs. Placebo (post hoc, IBU 250 mg) | Period post dose in which subjects' temperatures were significantly reduced relative to placebo (IBU 250 mg) [min] | WSTD0-2 h, Mean (SD) | WSTD0-4 h, Mean (SD) | WSTD0-6 h, Mean (SD) | WSTD6-8 h, Mean (SD) | WSTD0-8 h, Mean (SD) | Headache due to RSE, subjects (IBU 250 mg) [%] | Nausea due to RSE, subjects (IBU 250 mg) [%] | Pyrexia, AE considered related to RSE, subjects (IBU 250 mg) [%] | other results |
| --- | --- | --- | --- | --- | --- | --- | --- | --- | --- | --- | --- | --- | --- | --- | --- | --- | --- | --- | --- | --- | --- |
| CC(=O)Nc1ccc(O)cc1 [APAP, N-(4-hydroxyphenyl)acetamide] | 0.60 | 1.42 | 1.92 | 2.35 | 0.53 | 0.135 | 0.19 | 0.192 | 0.23 | 0.406 | 0.253 | 100 to 270 | 0.21 (1.73) | 3.41 (3.17) | 7.65 (4.60) | 5.84 (2.33) | 12.39 (6.28) | 5.7 | 9.2 | 29.9 | – |
| CC(C)Cc1ccc(C(C)C(=O)O)cc1 (stereo not shown) [IBU, 2-(4-isobutylphenyl) propionic acid] | 0.51 | 1.26 | 1.83 | 2.23 | 0.51 | 0.103 | −0.02 | 0.190 | 0.13 | 0.374 | 0.251 | 100 to 180 | −0.19 (1.86) | 2.61 (3.34) | 6.65 (4.79) | 5.49 (2.26) | 11.09 (6.35) | 14.9 | 12.6 | 41.4 | Subjects who took rescue medication (8-hour treatment period, IBU 250 mg): 1 subject; Global Evaluation of study medication as a fever reducer, in words (ANCOVA analysis, 6-point scale, P<0.05): rated their treatment significantly higher than those in the placebo group; WSTD0-2 h, Treatment difference vs. APAP 500 mg [1]: −0.09; WSTD0-4 h, Treatment difference vs. APAP 500 mg [1]: −0.16; WSTD0-6 h, Treatment difference vs. APAP 500 mg [1]: −0.09; WSTD0-8 h, Treatment difference vs. APAP 500 mg [1]: −0.12; WSTD6-8 h, Treatment difference vs. APAP 500 mg [1]: −0.01; WSTD50-110 min, Treatment difference vs. APAP 500 mg (post hoc, IBU 250 mg): −0.032; WSTD80-110 min, Treatment difference vs. APAP 500 mg (post hoc, IBU 250 mg): −0.002 |
